Converted amounts (≈) assume the structure as drawn.
Assays:
Assay in all cases: CLSI broth dilution MIC determination
Format in all cases: cell-based
K. pneumoniae KPC-2 = details: Gram-negative
A. baumannii ATCC 19606 = details: A. baumannii ATCC 19606; Gram-negative
[1] = test system: E. faecalis Vancomycin-resistant; details: E. faecalis Vancomycin-resistant; Gram-positive
E. faecalis ATCC 29212 = details: E. faecalis ATCC 29212; Gram-positive
K. pneumoniae ATCC 10031 = details: K. pneumoniae ATCC 10031; Gram-negative
[2] = test system: H. influenzae Erythro >4, Azithro 1; details: H. influenzae Erythro >4, Azithro 1; Gram-negative
From the text: MIC data was collected for the novel macrolides that this platform has produced against over 21 unique strains of B. subtilis, E. coli, S. aureus, S. pneumoniae, and H. influenzae, including several multidrug-resistant strains, with a special focus on macrolide resistant mechanisms (vide supra). […] CLSI standard procedures for broth dilution MIC determination were used. […] These genotypes can be constitutive or inducible.

[3] = test system: A. baumannii chromosomal class C; details: Gram-negative
[4] = test system: P. aeruginosa HPA101-1477; details: Gram-negative
A. baumannii IMP-4 = details: Gram-negative
[5] = test system: A. baumannii imipenem-resistant; details: Gram-negative
P. aeruginosa ATCC 27853 = details: P. aeruginosa ATCC 27853; Gram-negative
S. pyogenes ATCC 19615 = details: S. pyogenes ATCC 19615; Gram-positive
E. coli CTX-M-14 = details: Gram-negative
From the text: (§1) MIC data was collected for the novel macrolides that this platform has produced against over 21 unique strains of B. subtilis, E. coli, S. aureus, S. pneumoniae, and H. influenzae, including several multidrug-resistant strains, with a special focus on macrolide resistant mechanisms (vide supra). Azithromycin (Azithro) and Solithromycin (Solithro) were included as a control macrolides in many cases. CLSI standard procedures for broth dilution MIC determination were used. […] These genotypes can be constitutive or inducible.

[6] = test system: S. pneumoniae mef A genotype (second strain so labelled); details: Gram-positive
From the text: as §1

S. aureus USA600, GISA = details: S. aureus USA600, GISA; Gram-positive
From the text: as §1

E. coli TEM-1 = details: E. coli TEM-1; Gram-negative
From the text: as §1

K. pneumoniae TEM-10 = details: Gram-negative
From the text: as §1

S. pneumoniae ATCC 49619 = details: S. pneumoniae ATCC 49619; Gram-positive
From the text: as §1

S. aureus MRSA: USA100 = details: S. aureus MRSA: USA100; Gram-positive
From the text: as §1

E. coli ATCC 25922 = details: E. coli ATCC 25922; Gram-negative
From the text: as §1

S. aureus erm A genotype = details: S. aureus erm A genotype; Gram-positive
From the text: as §1

H. influenzae ATCC49247 = details: Gram-negative
From the text: as §1

E. coli NDM-1 = details: Gram-negative
From the text: as §1

S. aureus ATCC 29213 = details: S. aureus ATCC 29213; Gram-positive
From the text: as §1

S. aureus MRSA: USA300 = details: S. aureus MRSA: USA300; Gram-positive
From the text: as §1

[7] = test system: S. pyogenes Macrolide-resistant; details: S. pyogenes Macrolide-resistant; Gram-positive
K. pneumoniae SHV-12 = details: Gram-negative

`CC[C@H]1OC(=O)[C@@](C)(F)C(=O)[C@H](C)[C@@H](O[C@@H]2OC(C)CC(N(C)C)C2O)[C@](C)(OC)C[C@@H](C)C(=O)[C@H](C)[C@H]2N(C/C=C/Cn3cc(-c4ccccn4)nn3)C(=O)O[C@]12C` (stereo partly drawn) [FSM-100383] gave an MIC (K. pneumoniae KPC-2) greater than 32 µg/mL, an MIC (A. baumannii ATCC 19606) of 4 µg/mL (≈ 4.83 µM) and an MIC [1] greater than 32 µg/mL. The MIC (E. faecalis ATCC 29212) was less than 0.0312 µg/mL, the MIC (K. pneumoniae ATCC 10031) was 2 µg/mL (≈ 2.41 µM) and the MIC [2] was 0.5 µg/mL (≈ 0.603 µM). The MIC [3] was 8 µg/mL (≈ 9.65 µM), the MIC [4] was greater than 32 µg/mL and the MIC (A. baumannii IMP-4) was greater than 32 µg/mL. The MIC [5] was 8 µg/mL (≈ 9.65 µM), the MIC (P. aeruginosa ATCC 27853) was greater than 32 µg/mL and the MIC (S. pyogenes ATCC 19615) was less than 0.0312 µg/mL. For the same molecule, the MIC (E. coli CTX-M-14) was greater than 32 µg/mL, the MIC [6] was less than 0.0312 µg/mL and the MIC (S. aureus USA600, GISA) was greater than 32 µg/mL. For the same molecule, the MIC (E. coli TEM-1) was 16 µg/mL (≈ 19.3 µM), the MIC (K. pneumoniae TEM-10) was 16 µg/mL (≈ 19.3 µM) and the MIC (S. pneumoniae ATCC 49619) was less than 0.0312 µg/mL. For the same molecule, the MIC (S. aureus MRSA: USA100) was greater than 32 µg/mL, the MIC (E. coli ATCC 25922) was 8 µg/mL (≈ 9.65 µM) and the MIC (S. aureus erm A genotype) was greater than 32 µg/mL. It also gave an MIC (H. influenzae ATCC49247) of 0.5 µg/mL (≈ 0.603 µM), an MIC (E. coli NDM-1) of 32 µg/mL (≈ 38.6 µM) and an MIC (S. aureus ATCC 29213) of less than 0.0312 µg/mL. It also gave an MIC (S. aureus MRSA: USA300) of 0.5 µg/mL (≈ 0.603 µM), an MIC [7] of less than 0.0312 µg/mL and an MIC (K. pneumoniae SHV-12) greater than 32 µg/mL.
`CC[C@H]1OC(=O)[C@@](C)(F)C(=O)[C@H](C)[C@@H](O[C@@H]2OC(C)CC(N(C)C)C2O)[C@](C)(OC)C[C@@H](C)C(=O)[C@H](C)[C@H]2N(C/C=C/Cn3cc(-c4cccc(N)c4)nn3)C(=O)O[C@]12C` (stereo partly drawn) [FSM-11563] gave an MIC (K. pneumoniae KPC-2) greater than 32 µg/mL, an MIC (A. baumannii ATCC 19606) of 4 µg/mL (≈ 4.74 µM) and an MIC [1] of 4 µg/mL (≈ 4.74 µM). The MIC (E. faecalis ATCC 29212) was no more than 0.0312 µg/mL, the MIC (K. pneumoniae ATCC 10031) was 4 µg/mL (≈ 4.74 µM) and the MIC [2] was 4 µg/mL (≈ 4.74 µM). It also gave an MIC [3] of 2 µg/mL (≈ 2.37 µM), an MIC [4] greater than 32 µg/mL and an MIC (A. baumannii IMP-4) greater than 32 µg/mL. For the same molecule, the MIC [5] was 4 µg/mL (≈ 4.74 µM), the MIC (P. aeruginosa ATCC 27853) was 32 µg/mL (≈ 38 µM) and the MIC (S. pyogenes ATCC 19615) was no more than 0.0312 µg/mL. For the same molecule, the MIC (E. coli CTX-M-14) was greater than 32 µg/mL, the MIC [6] was no more than 0.0312 µg/mL and the MIC (S. aureus USA600, GISA) was greater than 32 µg/mL. The MIC (E. coli TEM-1) was 16 µg/mL (≈ 19 µM), the MIC (K. pneumoniae TEM-10) was 32 µg/mL (≈ 38 µM) and the MIC (S. pneumoniae ATCC 49619) was no more than 0.0312 µg/mL. For the same molecule, the MIC (S. aureus MRSA: USA100) was greater than 32 µg/mL, the MIC (E. coli ATCC 25922) was 16 µg/mL (≈ 19 µM) and the MIC (S. aureus erm A genotype) was greater than 32 µg/mL. It also gave an MIC (H. influenzae ATCC49247) of 2 µg/mL (≈ 2.37 µM), an MIC (E. coli NDM-1) greater than 32 µg/mL and an MIC (S. aureus ATCC 29213) of 0.0625 µg/mL (≈ 0.0741 µM). For the same molecule, the MIC (S. aureus MRSA: USA300) was 0.125 µg/mL (≈ 0.148 µM), the MIC [7] was no more than 0.0312 µg/mL and the MIC (K. pneumoniae SHV-12) was greater than 32 µg/mL.
With `CC[C@H]1OC(=O)[C@H](C)C(=O)[C@H](C)[C@@H](O[C@@H]2OC(C)CC(N(C)C)C2O)[C@](C)(OC)C[C@@H](C)C(=O)[C@H](C)[C@H]2N(C/C=C/Cn3cnc(-c4ccccn4)c3)C(=O)O[C@]12C` (stereo partly drawn) [FSM-100421] the MIC (K. pneumoniae KPC-2) was greater than 32 µg/mL, the MIC (A. baumannii ATCC 19606) was 16 µg/mL (≈ 19.8 µM) and the MIC [1] was 32 µg/mL (≈ 39.5 µM). For the same molecule, the MIC (E. faecalis ATCC 29212) was less than 0.0312 µg/mL, the MIC (K. pneumoniae ATCC 10031) was 4 µg/mL (≈ 4.94 µM) and the MIC [2] was 1 µg/mL (≈ 1.23 µM). The MIC [3] was 32 µg/mL (≈ 39.5 µM), the MIC [4] was greater than 32 µg/mL and the MIC (A. baumannii IMP-4) was greater than 32 µg/mL. For the same molecule, the MIC [5] was 16 µg/mL (≈ 19.8 µM), the MIC (P. aeruginosa ATCC 27853) was greater than 32 µg/mL and the MIC (S. pyogenes ATCC 19615) was less than 0.0312 µg/mL. It also gave an MIC (E. coli CTX-M-14) greater than 32 µg/mL, an MIC [6] of 0.0625 µg/mL (≈ 0.0772 µM) and an MIC (S. aureus USA600, GISA) greater than 32 µg/mL. It also gave an MIC (E. coli TEM-1) of 32 µg/mL (≈ 39.5 µM), an MIC (K. pneumoniae TEM-10) of 32 µg/mL (≈ 39.5 µM) and an MIC (S. pneumoniae ATCC 49619) of less than 0.0312 µg/mL. For the same molecule, the MIC (S. aureus MRSA: USA100) was greater than 32 µg/mL, the MIC (E. coli ATCC 25922) was 32 µg/mL (≈ 39.5 µM) and the MIC (S. aureus erm A genotype) was greater than 32 µg/mL. It also gave an MIC (H. influenzae ATCC49247) of 2 µg/mL (≈ 2.47 µM), an MIC (E. coli NDM-1) greater than 32 µg/mL and an MIC (S. aureus ATCC 29213) of 0.0625 µg/mL (≈ 0.0772 µM). It also gave an MIC (S. aureus MRSA: USA300) of 2 µg/mL (≈ 2.47 µM), an MIC [7] of less than 0.0312 µg/mL and an MIC (K. pneumoniae SHV-12) greater than 32 µg/mL.

From patent US10633407B2, “14-membered ketolides and methods of their preparation and use” (President and Fellows of Harvard College, priority 2014, dated 2020)
